In ChEMBL document CHEMBL1140740, “Discovery of benzisoxazoles as potent inhibitors of chaperone heat shock protein 90” (J Med Chem, 2008):
pIC50: −log10 of the molar value. ≈ marks a conversion by molar mass, not a printed value. Calls of active or inactive are those of the source. The calls are words filed in the database; no cut-off is given here.

What was measured:
[1] = test system: LNCaP; assay: Antiproliferation activity against human LnCap cells; type: functional, cell-based
[2] = test system: LNCaP; assay: Androgen receptor degradation in human LnCAP cells; type: functional, cell-based
[3] = biological target: T1, Inhibitor of nuclear factor kappa-B kinase subunit beta (Homo sapiens, UniProt O14920); assay: Inhibition of IKK2
T1 sequence (O14920 whole entry): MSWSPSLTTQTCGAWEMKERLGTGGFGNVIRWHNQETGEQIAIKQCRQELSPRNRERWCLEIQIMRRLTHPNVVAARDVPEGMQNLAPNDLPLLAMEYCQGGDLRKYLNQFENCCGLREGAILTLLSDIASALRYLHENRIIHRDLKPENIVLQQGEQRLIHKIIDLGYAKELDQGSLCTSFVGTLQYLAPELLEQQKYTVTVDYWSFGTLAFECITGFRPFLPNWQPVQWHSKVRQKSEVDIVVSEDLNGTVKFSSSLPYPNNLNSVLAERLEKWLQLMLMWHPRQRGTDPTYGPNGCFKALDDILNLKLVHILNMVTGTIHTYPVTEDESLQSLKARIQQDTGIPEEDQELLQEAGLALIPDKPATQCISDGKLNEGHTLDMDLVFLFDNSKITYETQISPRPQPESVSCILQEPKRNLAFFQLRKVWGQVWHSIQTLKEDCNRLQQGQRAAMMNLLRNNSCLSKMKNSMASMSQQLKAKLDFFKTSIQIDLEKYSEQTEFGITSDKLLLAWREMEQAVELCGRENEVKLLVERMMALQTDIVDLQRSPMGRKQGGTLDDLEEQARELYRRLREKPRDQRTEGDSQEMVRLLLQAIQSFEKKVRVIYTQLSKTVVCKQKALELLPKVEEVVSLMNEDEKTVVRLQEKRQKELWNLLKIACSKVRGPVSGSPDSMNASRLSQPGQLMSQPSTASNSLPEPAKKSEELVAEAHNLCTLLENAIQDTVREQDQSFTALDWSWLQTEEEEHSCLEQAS

[4] = test system: DU-145; assay: Antiproliferation activity against human DU145 cells; type: functional, cell-based
[5] = biological target: Activin receptor type-2B (Homo sapiens, UniProt Q13705); assay: Inhibition of ActR2B
[6] = test system: HCT-116; assay: Antiproliferation activity against human HCT116 cells in presence of geldanamycin; type: functional, cell-based
[7] = biological target: Protein kinase C theta type (Homo sapiens, UniProt Q04759); assay: Inhibition of PKC theta
[8] = Antiproliferation activity against human H157 cells; type: functional, cell-based; conditions: NCI-H157
[9] = test system: HCT-116; assay: Antiproliferation activity against human HCT116 cells; type: functional, cell-based
[10] = test system: SK-BR-3; assay: Antiproliferation activity against human SKBR3 cells; type: functional, cell-based
[11] = biological target: Serine/threonine-protein kinase B-raf (Homo sapiens, UniProt P15056); assay: Inhibition of B-Raf
[12] = biological target: MAP kinase-activated protein kinase 2 (Homo sapiens, UniProt P49137); assay: Inhibition of MK2
[13] = test system: SK-BR-3; assay: Degradation of HER2 in human SKBR3 cells; type: functional, cell-based
[14] = biological target: Serine/threonine-protein kinase mTOR (Homo sapiens, UniProt P42345); assay: Inhibition of mTOR
[15] = biological target: T2, Protein kinase C epsilon type (Homo sapiens, UniProt Q02156); assay: Inhibition of PKC epsilon
T2 sequence (Q02156 whole entry): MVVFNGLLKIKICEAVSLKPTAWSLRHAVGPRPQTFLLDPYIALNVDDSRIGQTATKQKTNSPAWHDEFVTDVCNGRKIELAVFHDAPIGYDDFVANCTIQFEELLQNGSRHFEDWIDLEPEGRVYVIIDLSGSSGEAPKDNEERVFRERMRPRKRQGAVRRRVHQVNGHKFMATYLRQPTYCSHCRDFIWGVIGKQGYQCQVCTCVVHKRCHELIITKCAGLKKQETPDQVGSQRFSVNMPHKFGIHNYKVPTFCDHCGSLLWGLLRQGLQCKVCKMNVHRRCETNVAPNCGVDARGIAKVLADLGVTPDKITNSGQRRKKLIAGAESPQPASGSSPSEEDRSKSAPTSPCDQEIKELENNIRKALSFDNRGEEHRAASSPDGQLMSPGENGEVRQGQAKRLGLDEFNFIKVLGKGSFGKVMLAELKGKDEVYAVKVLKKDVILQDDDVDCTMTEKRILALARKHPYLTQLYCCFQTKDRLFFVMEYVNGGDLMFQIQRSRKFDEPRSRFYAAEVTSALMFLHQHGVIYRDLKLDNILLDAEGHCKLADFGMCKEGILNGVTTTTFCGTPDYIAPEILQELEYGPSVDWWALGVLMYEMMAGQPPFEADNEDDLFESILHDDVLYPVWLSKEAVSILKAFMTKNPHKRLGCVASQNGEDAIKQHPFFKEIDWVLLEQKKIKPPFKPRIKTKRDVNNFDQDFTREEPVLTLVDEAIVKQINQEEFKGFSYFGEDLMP

[16] = test system: K562; assay: Downregulation of Bcr-Abl in human K562 cells; type: functional, cell-based
[17] = test system: K562; assay: Degradation of actin in human K562 cells; type: functional, cell-based
[18] = biological target: Phosphatidylinositol 4,5-bisphosphate 3-kinase catalytic subunit alpha isoform (Homo sapiens, UniProt P42336); assay: Inhibition of P13K alpha
[19] = test system: K562; assay: Upregulation of Hsp70 in K562 cells; type: functional, cell-based; conditions: Homo sapiens
[20] = biological target: Heat shock protein HSP 90-alpha (Homo sapiens, UniProt P07900)
Description: Inhibition of human Hsp90-alpha by fluorescence polarization assay

[21] = test system: HCT-116; assay: Antiproliferation activity against human HCT116 cells
[22] = Aqueous solubility at pH 7.4; type: physicochemical

Sequence of Serine/threonine-protein kinase B-raf (P15056 whole entry): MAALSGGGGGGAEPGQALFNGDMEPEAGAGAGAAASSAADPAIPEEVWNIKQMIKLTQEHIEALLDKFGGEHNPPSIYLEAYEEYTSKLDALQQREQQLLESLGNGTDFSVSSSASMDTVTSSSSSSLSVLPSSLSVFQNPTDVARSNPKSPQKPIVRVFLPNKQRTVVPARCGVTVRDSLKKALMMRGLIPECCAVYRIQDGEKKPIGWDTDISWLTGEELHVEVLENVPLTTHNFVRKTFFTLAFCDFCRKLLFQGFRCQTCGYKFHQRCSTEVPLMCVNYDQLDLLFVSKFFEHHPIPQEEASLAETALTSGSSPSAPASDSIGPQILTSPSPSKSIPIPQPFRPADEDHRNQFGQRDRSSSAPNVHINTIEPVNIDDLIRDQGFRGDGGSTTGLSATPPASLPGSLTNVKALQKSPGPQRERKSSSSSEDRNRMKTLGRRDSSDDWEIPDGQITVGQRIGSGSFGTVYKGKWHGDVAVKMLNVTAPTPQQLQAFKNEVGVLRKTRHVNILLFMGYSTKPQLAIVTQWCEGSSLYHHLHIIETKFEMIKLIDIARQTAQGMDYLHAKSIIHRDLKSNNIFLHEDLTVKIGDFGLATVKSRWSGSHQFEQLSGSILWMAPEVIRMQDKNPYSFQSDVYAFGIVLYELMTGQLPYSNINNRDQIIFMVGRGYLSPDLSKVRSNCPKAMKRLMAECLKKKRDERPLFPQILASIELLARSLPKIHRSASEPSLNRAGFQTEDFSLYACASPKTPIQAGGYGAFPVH
Sequence of Protein kinase C theta type (Q04759 whole entry): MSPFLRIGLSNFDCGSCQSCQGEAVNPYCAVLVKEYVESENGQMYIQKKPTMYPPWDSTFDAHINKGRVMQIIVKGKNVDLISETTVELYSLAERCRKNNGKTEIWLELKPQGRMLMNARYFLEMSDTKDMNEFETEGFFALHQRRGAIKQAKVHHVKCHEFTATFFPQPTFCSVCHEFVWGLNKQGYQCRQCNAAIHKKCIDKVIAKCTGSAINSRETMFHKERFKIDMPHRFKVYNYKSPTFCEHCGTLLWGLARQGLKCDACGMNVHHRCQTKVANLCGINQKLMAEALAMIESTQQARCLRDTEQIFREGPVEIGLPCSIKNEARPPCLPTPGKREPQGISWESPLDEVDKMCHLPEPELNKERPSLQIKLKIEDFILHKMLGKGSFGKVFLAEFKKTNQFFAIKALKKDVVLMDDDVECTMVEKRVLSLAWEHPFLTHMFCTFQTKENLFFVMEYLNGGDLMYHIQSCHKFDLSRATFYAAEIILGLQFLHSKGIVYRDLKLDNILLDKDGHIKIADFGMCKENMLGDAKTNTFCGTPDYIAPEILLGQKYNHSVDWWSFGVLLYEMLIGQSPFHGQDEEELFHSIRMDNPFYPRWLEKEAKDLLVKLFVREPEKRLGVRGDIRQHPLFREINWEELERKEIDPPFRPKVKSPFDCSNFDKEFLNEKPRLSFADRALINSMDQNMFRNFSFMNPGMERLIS
Sequence of MAP kinase-activated protein kinase 2 (P49137 whole entry): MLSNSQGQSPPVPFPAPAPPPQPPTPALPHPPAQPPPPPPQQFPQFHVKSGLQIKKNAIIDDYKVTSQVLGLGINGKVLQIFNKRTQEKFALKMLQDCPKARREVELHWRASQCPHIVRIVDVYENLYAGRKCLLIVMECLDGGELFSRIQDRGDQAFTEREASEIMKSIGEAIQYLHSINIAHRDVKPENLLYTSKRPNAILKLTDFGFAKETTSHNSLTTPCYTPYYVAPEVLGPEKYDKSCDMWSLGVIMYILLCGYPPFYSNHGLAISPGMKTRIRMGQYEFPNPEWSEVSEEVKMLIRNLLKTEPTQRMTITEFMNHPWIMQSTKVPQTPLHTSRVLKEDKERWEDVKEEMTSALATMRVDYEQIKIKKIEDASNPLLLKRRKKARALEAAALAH
Sequence of Phosphatidylinositol 4,5-bisphosphate 3-kinase catalytic subunit alpha isoform (P42336 whole entry, canonical isoform): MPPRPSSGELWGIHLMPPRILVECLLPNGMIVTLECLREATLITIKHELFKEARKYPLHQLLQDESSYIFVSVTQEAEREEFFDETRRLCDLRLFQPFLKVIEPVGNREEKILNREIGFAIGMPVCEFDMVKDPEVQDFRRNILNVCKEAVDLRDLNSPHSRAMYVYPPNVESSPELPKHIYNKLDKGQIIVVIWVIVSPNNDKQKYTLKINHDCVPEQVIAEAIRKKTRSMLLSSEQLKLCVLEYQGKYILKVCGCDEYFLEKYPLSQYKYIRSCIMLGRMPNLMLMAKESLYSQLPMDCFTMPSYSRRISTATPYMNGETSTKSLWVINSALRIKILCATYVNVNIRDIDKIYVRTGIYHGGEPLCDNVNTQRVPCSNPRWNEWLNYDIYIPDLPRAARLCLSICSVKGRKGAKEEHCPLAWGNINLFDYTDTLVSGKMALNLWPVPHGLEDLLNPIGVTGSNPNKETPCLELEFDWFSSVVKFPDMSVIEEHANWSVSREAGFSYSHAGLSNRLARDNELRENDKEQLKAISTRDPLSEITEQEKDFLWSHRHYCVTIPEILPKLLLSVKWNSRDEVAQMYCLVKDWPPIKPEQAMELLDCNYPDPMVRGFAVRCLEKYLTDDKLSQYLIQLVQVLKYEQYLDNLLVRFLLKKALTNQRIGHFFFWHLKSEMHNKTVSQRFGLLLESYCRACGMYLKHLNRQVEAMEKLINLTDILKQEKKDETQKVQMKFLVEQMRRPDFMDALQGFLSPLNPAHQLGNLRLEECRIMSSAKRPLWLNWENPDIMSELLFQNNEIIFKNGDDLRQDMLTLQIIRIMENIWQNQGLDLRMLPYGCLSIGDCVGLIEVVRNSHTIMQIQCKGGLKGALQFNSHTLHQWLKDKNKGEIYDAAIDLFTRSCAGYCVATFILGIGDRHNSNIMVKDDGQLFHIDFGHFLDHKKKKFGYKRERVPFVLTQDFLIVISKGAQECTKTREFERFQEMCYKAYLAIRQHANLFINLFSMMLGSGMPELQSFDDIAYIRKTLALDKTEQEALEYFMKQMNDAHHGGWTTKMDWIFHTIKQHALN
Sequence of Activin receptor type-2B (Q13705 whole entry): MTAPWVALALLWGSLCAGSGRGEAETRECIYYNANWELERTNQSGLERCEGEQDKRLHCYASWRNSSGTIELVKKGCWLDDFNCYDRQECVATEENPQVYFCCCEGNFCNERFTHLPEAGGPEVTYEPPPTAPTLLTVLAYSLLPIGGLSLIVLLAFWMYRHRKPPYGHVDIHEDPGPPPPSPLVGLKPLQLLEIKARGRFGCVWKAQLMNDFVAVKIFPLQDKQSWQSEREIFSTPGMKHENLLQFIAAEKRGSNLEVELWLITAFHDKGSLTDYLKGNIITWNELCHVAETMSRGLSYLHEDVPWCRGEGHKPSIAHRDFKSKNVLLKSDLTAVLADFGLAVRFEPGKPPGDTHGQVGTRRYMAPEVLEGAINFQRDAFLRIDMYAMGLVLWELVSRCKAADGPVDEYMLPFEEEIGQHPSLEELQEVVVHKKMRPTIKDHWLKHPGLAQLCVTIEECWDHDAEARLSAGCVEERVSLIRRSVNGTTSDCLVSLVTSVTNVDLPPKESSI

With `Oc1cc(O)c(-c2noc3ccc(NCCN4CCOCC4)cc23)cc1Cl` the pIC50 [1] was 6.77, the pIC50 [2] was 6.48 and the pIC50 [3] was under 4.70. It also gave a pIC50 [4] of 6.54, a pIC50 [5] of under 4.70 and a pIC50 [6] of 7.30. For the same compound, the pIC50 [7] was under 4.70, the pIC50 [8] was 6.64 and the pIC50 [9] was 6.55. The pIC50 [10] was 6.43, the pIC50 [11] was under 4.70 and the pIC50 [12] was under 4.70. The pIC50 [13] was 6.48, the pIC50 [14] was under 4.70 and the pIC50 [15] was under 4.70. The Activity [16] was “Active”, the Activity [17] was “inactive” and the pIC50 [18] was under 4.70. The Activity [19] was “Active”.
In the case of `Oc1cc(O)c(-c2noc3ccc(NCCN4CCOCC4)cc23)cc1Br`, the pIC50 [20] was 7.40.
`COc1ccc2c(-c3cc(Cl)c(OC)cc3OC)noc2c1` gave a pIC50 [20] of under 4.70.
`CN1CCN(c2ccc3onc(-c4cc(Cl)c(O)cc4O)c3c2)CC1` showed a pIC50 [9] of 5.03 and a pIC50 [20] of 6.10.
With `COc1cc(OC)c(-c2noc3ccc(NCCN4CCOCC4)cc23)cc1Cl` the pIC50 [20] was under 4.70.
`Oc1ccc2c(-c3cc(Br)c(O)cc3O)noc2c1` gave a pIC50 [21] of at most 4.70, a pIC50 [13] of at most 4.70 and a solubility [22] of 4 µg/mL (≈ 12.4 µM).
Work on `Oc1ccc(-c2noc3cc(O)ccc23)c(O)c1` yielded a pIC50 [20] of 4.82.
Work on `Oc1ccc2c(-c3cc(Cl)c(O)cc3O)noc2c1` yielded a pIC50 [20] of 7.22.
